Test results: ChEMBL document CHEMBL5331060, “Bisindole natural products: A vital source for the development of new anticancer drugs” (Eur J Med Chem, 2022)
In brackets after ≈: the same amount, converted by molar mass. Each block holds one compound with its values, some of them ahead of it.

What was measured:
HepG2 [1] = test: Antiproliferative activity against human HepG2 cells assessed as inhibition of cell growth incubated for 24 hrs by colorimetric method; type: functional, cell-based; details: HepG2, 24 h
BT-549 = test: Antiproliferative activity against human BT-549 cells assessed as inhibition of cell growth incubated for 48 hrs by MTT assay; type: functional, cell-based; details: BT-549, 48 h
PC-3 [2] = test: Antiproliferative activity against human PC-3 cells assessed as inhibition of cell growth incubated for 48 hrs by MTT assay; type: functional, cell-based; details: PC-3, 48 h
A549 [3] = test: Antiproliferative activity against human A549 cells assessed as inhibition of cell growth incubated for 48 hrs by MTT assay; type: functional, cell-based; details: A549, 48 h
K562 = test: Antiproliferative activity against human K562 cells assessed as inhibition of cell growth incubated for 48 hrs by MTT assay; type: functional, cell-based; details: K562, 48 h
MCF7 [4] = test: Antiproliferative activity against human MCF7 cells assessed as inhibition of cell growth incubated for 48 hrs by MTT assay; type: functional, cell-based; details: MCF7, 48 h
SMMC-7721 [5] = test: Antiproliferative activity against human SMMC-7721 cells assessed as inhibition of cell growth incubated for 48 hrs by MTT assay; type: functional, cell-based; details: SMMC-7721, 48 h
HL-60 = test: Antiproliferative activity against human HL-60 cells assessed as inhibition of cell growth incubated for 48 hrs by MTT assay; type: functional, cell-based; details: HL-60, 48 h
PANC-1 [6] = test: Antiproliferative activity against human PANC-1 cells assessed as inhibition of cell growth incubated for 48 hrs by MTT assay; type: functional, cell-based; details: PANC-1, 48 h
SK-BR-3 = test: Antiproliferative activity against human SK-BR-3 cells assessed as inhibition of cell growth incubated for 48 hrs by MTT assay; type: functional, cell-based; details: SK-BR-3, 48 h
CCRF-CEM = test: Antiproliferative activity against human CCRF-CEM cells assessed as inhibition of cell growth by MTT assay; type: functional, cell-based
B16 = test: Antiproliferative activity against B16 cells assessed as inhibition of cell growth by MTT assay; type: functional, cell-based; details: Mus musculus
NCI-H460 = test: Antiproliferative activity against human NCI-H460 cells assessed as inhibition of cell growth by MTT assay; type: functional, cell-based
4T1 = test: Antiproliferative activity against mouse 4T1 cells assessed as inhibition of cell growth incubated for 48 hrs by MTT assay; type: functional, cell-based; details: 4T1, 48 h
HCT-8 = test: Antiproliferative activity against human HCT-8 cells assessed as inhibition of cell growth; type: functional, cell-based
A549 [7] = test: Antiproliferative activity against human A549 cells assessed as inhibition of cell growth; type: functional, cell-based
[8] = Antiproliferative activity against human MDA-MB cells assessed as inhibition of cell growth; type: functional, cell-based
[9] = Antiproliferative activity against vincristine-resistant human KB cells assessed as inhibition of cell growth; type: functional, cell-based
PC-3 [10] = test: Antiproliferative activity against human PC-3 cells assessed as inhibition of cell growth; type: functional, cell-based
HCT-116 [11] = test: Antiproliferative activity against human HCT-116 cells assessed as inhibition of cell growth; type: functional, cell-based
KB [12] = test: Antiproliferative activity against vincristine-sensitive human KB cells assessed as inhibition of cell growth; type: functional, cell-based
HT-29 = test: Antiproliferative activity against human HT-29 cells assessed as inhibition of cell growth; type: functional, cell-based
MCF7 [13] = test: Antiproliferative activity against human MCF7 cells assessed as inhibition of cell growth; type: functional, cell-based
MDA-MB-231 = test: Antiproliferative activity against human MDA-MB-231 cells assessed as inhibition of cell growth; type: functional, cell-based
[14] = Antiproliferative activity against vincristine-resistant human KB cells assessed as inhibition of cell growth incubated for 72 hrs by MTT assay; type: functional, cell-based
MIA PaCa-2 = test: Antiproliferative activity against human MIA PaCa-2 cells assessed as inhibition of cell growth incubated for 72 hrs by MTT assay; type: functional, cell-based; details: MIA PaCa-2, 72 h
PANC-1 [15] = test: Antiproliferative activity against human PANC-1 cells assessed as inhibition of cell growth incubated for 72 hrs by MTT assay; type: functional, cell-based; details: PANC-1, 72 h
ASPC1 = test: Antiproliferative activity against human ASPC1 cells assessed as inhibition of cell growth incubated for 72 hrs by MTT assay; type: functional, cell-based; details: ASPC1, 72 h
BXPC-3 = test: Antiproliferative activity against human BXPC-3 cells assessed as inhibition of cell growth incubated for 72 hrs by MTT assay; type: functional, cell-based; details: BXPC-3, 72 h
SMMC-7721 [16] = test: Antiproliferative activity against human SMMC-7721 cells assessed as inhibition of cell growth incubated for 48 hrs by MTS assay; type: functional, cell-based; details: SMMC-7721, 48 h
A549 [17] = test: Antiproliferative activity against human A549 cells assessed as inhibition of cell growth incubated for 48 hrs by MTS assay; type: functional, cell-based; details: A549, 48 h
HeLa = test: Antiproliferative activity against human HeLa cells assessed as inhibition of cell growth incubated for 48 hrs by MTS assay; type: functional, cell-based
HepG2 [18] = test: Antiproliferative activity against human HepG2 cells assessed as inhibition of cell growth incubated for 48 hrs by MTS assay; type: functional, cell-based; details: HepG2, 48 h
HCT-116 [19] = test: Antiproliferative activity against human HCT-116 cells assessed as inhibition of cell growth incubated for 24 hrs by MTT assay; type: functional, cell-based; details: HCT-116, 24 h
A549 [20] = test: Antiproliferative activity against human A549 cells assessed as inhibition of cell growth incubated for 72 hrs by MTT assay; type: functional, cell-based; details: A549, 72 h, pooled result: one value given for 8 cell lines, strains, targets or settings
Jurkat = test: Antiproliferative activity against human Jurkat cells assessed as inhibition of cell growth; type: functional, cell-based
KB [21] = test: Antiproliferative activity against drug-sensitive human KB cells assessed as inhibition of cell growth; type: functional, cell-based
L1210 = test: Antiproliferative activity against mouse L1210 cells assessed as inhibition of cell growth; type: functional; details: L1210, read-out: ED50
PANC-1 [22] = test: Antiproliferative activity against human PANC-1 cells assessed as inhibition of cell growth incubated for 24 hrs by FMCA assay; type: functional, cell-based; details: PANC-1, 24 h

IC50 (HepG2 [1]): 24.6 µg/mL (≈ 61.7 µM)
SMILES: COC(=O)/C1=C/c2c([nH]c3ccccc23)/C(C(=O)OC)=C\c2c1[nH]c1ccccc21 [CAULERPIN]

IC50 (BT-549): 890 nM
IC50 (PC-3 [2]): 3440 nM
IC50 (A549 [3]): 11400 nM
IC50 (K562): 10700 nM
SMILES: CC[C@]12C=C[C@H](C3=CC4CC(C(=O)OC)=C5Nc6cc(OC)ccc6[C@@]56CCN(C3)[C@@H]46)N3CC[C@]4(C(=C(C(=O)OC)C1)Nc1cc(OC)ccc14)[C@@H]32 (stereo partly drawn)

IC50 (MCF7 [4]): 500 nM
IC50 (A549 [3]): 500 nM
IC50 (SMMC-7721 [5]): 500 nM
IC50 (HL-60): 500 nM
IC50 (PANC-1 [6]): 500 nM
IC50 (SK-BR-3): 500 nM
SMILES: CCC12CCCN3CC[C@@]4(OC)c5cc([C@@H]6C[C@@]7(CC)CCCN8CCc9c(n6c6ccccc96)[C@H]87)c(O)cc5N(CCC1)C324 (stereo partly drawn)

IC50 (CCRF-CEM): 4 µg/mL (≈ 9.13 µM)
IC50 (B16): 5 µg/mL (≈ 11.4 µM)
IC50 (NCI-H460): 12 µg/mL (≈ 27.4 µM)
SMILES: COC(=O)c1[nH]cc2c1[C@]1(CN(C)c3ccc(Cl)cc31)c1[nH]c3ccc(Cl)cc3c1-2

SMILES: C/C=C1/CN(C)[C@H]2Cc3c([nH]c4ccccc34)[C@H](c3cc4[nH]c5c(c4cc3OC)CCN3C[C@@H]4C[C@H](CC)[C@H]3[C@@]5(C(=O)OC)C4)C[C@@H]1C2C(=O)OC (stereo partly drawn)
IC50 (MCF7 [4]): 990 nM
IC50 (4T1): 1420 nM

IC50 (HCT-8): 1 µg/mL (≈ 1.71 µM)
IC50 (A549 [7]): 1 µg/mL
SMILES: CN1C[C@H](c2c[nH]c3c(Br)c(Br)cc(O)c23)NC[C@H]1c1c[nH]c2cc(Br)ccc12
IC50 [8]: 1 µg/mL (≈ 1.71 µM)

IC50 (PC-3 [10]): 1300 nM
IC50 (HCT-116 [11]): 1300 nM
IC50 (KB [12]): 1300 nM
IC50 (HT-29): 1300 nM
IC50 (MCF7 [13]): 1300 nM
IC50 (A549 [7]): 1300 nM
IC50 (MDA-MB-231): 1300 nM
SMILES: C/C=C1/CN2CC[C@]34C(=C(CN5c6ccccc6[C@@]67CCN8CCC[C@]9(CC[C@]56[C@H](C(=O)OC)C9)[C@H]87)[C@H]1C[C@H]23)Nc1ccccc14
IC50 [9]: 1300 nM

SMILES: O=C1NC(=O)c2c1c1c3ccccc3[nH]c1c1[nH]c3cc(O)ccc3c21
IC50 [14]: 2.28 µg/mL (≈ 6.68 µM)

IC50 (MIA PaCa-2): 26000 nM
IC50 (PANC-1 [15]): 18000 nM
IC50 (ASPC1): 27000 nM
IC50 (BXPC-3): 14000 nM
SMILES: N=C(N)NCCSc1nc(-c2c[nH]c3cc(Br)ccc23)cnc1-c1c[nH]c2cc(Br)ccc12

IC50 (SMMC-7721 [16]): 4310 nM
IC50 (A549 [17]): 16200 nM
IC50 (HeLa): 4400 nM
IC50 (HepG2 [18]): 7020 nM
SMILES: CC[C@]12CCCn3c(Cc4cc5c6n4CCC[C@]6(CC)CCC(=O)Nc4ccccc4-5)cc(c31)-c1ccccc1NC(=O)CC2

IC50 (HCT-116 [19]): 78000 nM
SMILES: O=C1C[C@@H]2c3ccc(O)c(O)c3[C@@]3(Nc4ccccc4C3=O)[C@@]23C(=O)c2ccccc2N13

IC50 (A549 [20]): 18700 nM
SMILES: c1ccc2c(C3(c4c[nH]c5ccccc45)CCCCC3)c[nH]c2c1

IC50 (Jurkat): 3.7 µg/mL (≈ 4.65 µM)
IC50 (KB [21]): 3.2 µg/mL (≈ 4.03 µM)
SMILES: C/C=C1/CN2CC[C@]34c5ccccc5N5[C@H](C(=O)OC)[C@H]1C[C@H]2[C@@]53Oc1c4cc2c(c1O)C(=O)O[C@@]13[C@@H]4C[C@H]5/C(=C\C)CN4CC[C@@]21c1ccccc1N3[C@@H]5C(=O)OC
IC50 [9]: 2 µg/mL

EC50 (L1210): 10 µg/mL (≈ 20.5 µM)
SMILES: CN1C[C@H](c2c[nH]c3cc(Br)ccc23)NC[C@H]1c1c[nH]c2cc(Br)ccc12

IC50 (PANC-1 [22]): 68000 nM
SMILES: O=C1NCc2c1c1c3ccc(O)cc3[nH]c1c1[nH]c3ccccc3c21
